Results reported in patent US20040054130A1, “Insulin potentiating peptides” (priority 2000, published 2004).
Square brackets hold non-standard residues; d marks the D form. Ends that are not written are not given here.

Tests used:
[1] = system: Zucker (fa/fa) rat hemidiaphragm muscle; experiment: In vitro glycogen synthesis (glucose incorporation into glycogen) in hemidiaphragm muscle with exogenous insulin; assay type: cell-based
Experimental: In vitro insulin-potentiating effects of the synthetic peptide analogues were assessed by measuring the rates of exogenous glucose incorporation into glycogen in rat hemidiaphragms (Lim et al, 1992). Hemidiaphragms from overnight-fasted Zucker fatty(fa/fa) female rats were dissected, and divided into segments of approximate 35-50 mg each. Tissues from the same rat were used for all groups. The tissue was incubated in 2 ml of Krebs-Ringer bicarbonate (KRB) buffer (pH 7.4) containing [^14C]glucose (5.5 mM, final specific activity 0.05 mCi/mmol) under an atmosphere of 95% 02-5% CO2 at 37° C. for 1.5 hr. After incubation, tissues were removed, washed with cold buffer and blotted. Tissues were digested, the muscle glycogen was precipitated and the ^14C-radioactivity was counted in a Wallac 1410 liquid scintillation counter. The biological activity of peptide analogues was measured as the rate of mmol glucose incorporation into muscle glycogen/g tissue/hr.
The sensitivity of hemidiaphragm muscle tissue to insulin (0.1-100 mU/ml) on glycogen synthesis was first analyzed. The dose response curves for peptide analogues on the insulin-potentiating effect to glycogen synthesis were then measured using cumulative increasing concentrations (10^−3 10 μmol/ml) of peptides in the presence of insulin (1 mU/ml). The biological activity of each peptide analogue was measured as the rate of glucose incorporation into muscle glycogen (μmol/g tissue/hr), and represented by the mean±SEM from eight determinations.
To determine the insulin-potentiating effect of the peptide analogues, the rates of incorporation of glucose into muscle glycogen were measured. The rates of glycogen synthesis (μmol/g tissue/hr) were 0.52±0.05, 0.60±0.04, 1.27±0.06 and 1.52±0.07 inresponse to 0.33, 1, 3.33 and 10 mU/ml insulin respectively, as shown in FIG. 1.
The insulin-potentiating effect of the peptide analogues was then observed by studying their dose response. curves for glucose incorporation into glycogen in the presence of 1 mU/ml exogenous insulin. The effects of peptides 1, 3, 4, 6, 7, 8 and 10 were evident at doses higher than 0.01 μmol/ml, and continued to increase with increasing peptide concentration to 1 μmol/ml, as shown in FIGS. 2A and 2B.
The activity of each analogue was assessed by in vitro measurement of glycogen synthesis in muscle, as described above.

[2] = system: Zucker fatty (fa/fa) rats; experiment: Basal blood glucose determination after i.p. peptide; assay type: in vivo, rat; settings: 10 μmol/kg body weight i.p., over 150 min, vs saline
Experimental: Overnight-fasted Zucker fatty(fa/fa) female rats were anaesthetized with sodium pentobarbitone (60 mg/kg body weight). After 45 min, basal blood glucose samples were taken from the tail vein, followed immediately by intraperitoneal (i.p.) injection of saline (control) or the peptide analogue (test, 10 μmol/kg body weight) in 0.4 ml of saline. Blood samples were taken at 15, 30, 60, 90, 120, 150 minutes after injection, and the blood glucose level in each sample was measured immediately by the glucose oxidase method, using a YSI Model-2300 STAT glucose analyzer (Yellow Spring, Ohio). Six animals for each group were used.
The reduction of basal blood glucose levels in animals by different peptide analogues administered intraperitoneally (i.p.)at a dose of 10 μmol/kg body weight was measured for over 150 min.

[3] = system: Zucker fatty (fa/fa) female rats; experiment: Acute oral administration, blood glucose; assay type: in vivo, rat
Experimental: Overnight fasted Zucker fatty (fa/fa) female rats were administered peptide 3 (ADD9903) by oral gavage at a concentration of 20 μmol/kg of body weight. Rats were then immediately anaesthetized with nembutal administered intraperitoneally in order to avoid variations arising due to activity of the rats. Blood samples were collected from the tail vein at time 0 min (immediately after oral gavage and before anaesthetic), 60 min, 120 min and 180 min, and analyzed for blood glucose by the glucose oxidation method using a YSI Model-2300 STAT glucose analyzer (Yellow Spring, Ohio). Six rats were analyzed for each of the control and treated groups.

C57BL/6J ob/ob mice [4] = experiment: Chronic administration (14 day mini-pump): body weight, food intake, plasma glucose; assay type: in vivo, mouse
Experimental: The effects of chronic administration of peptide 3 in the C57Bl/6J ob/ob diabetic model were evaluated by measurements of a number of parameters, including body weight, food intake, plasma glucose levels, plasma insulin levels, intraperitoneal glucose tolerance test and glucose uptake by adipose tissue (ex vivo). Male and female C57BL/6J ob/ob mice aged 12-15 weeks old were used. Fasting blood glucose levels were determined for all mice 14 days prior to experimentation. Only mice with fasting blood glucose levels >7.0 mmol/l were used in the study. Mice selected for this experiment were initially fasted for 4 hours, then anaesthetized with a single injection of sodium pentobarbitone (35 mg/kg). A blood sample was collected from each mouse by eye-bleed for the assessment of plasma glucose and insulin levels (day 0). Collected blood samples were stored at −20° C. until analysis was performed. A single Alzet mini-pump (#1002, Alzet, USA) containing either sterile saline (100 μl; n=14) or peptide 3 (20 μmol/kg dissolved in 100 μl saline; n=14) was inserted under the skin between the scapula of the mice. The incision was clamped and disinfected using iodine. The pumps were left for 14 days, and 5 body-weight, and food measurements were recorded during this period, at days 0, 4, 7, 10 and 14. Blood samples were collected on day 0 and 14 days post-saline (n=5) or peptide 3 (n=4) administration for plasma glucose analysis. The results reported below are expresses as mean +/− standard error.

C57BL/6J ob/ob mice [5] = experiment: Plasma insulin radioimmunoassay after chronic administration; assay type: in vivo, mouse; settings: after 14 days treatment
Experimental: Mice selected for this experiment were initially fasted for 4 hours, then anaesthetized with a single injection of sodium pentobarbitone (35 mg/kg). A blood sample was collected from each mouse by eye-bleed for the assessment of plasma glucose and insulin levels (day 0). Collected blood samples were stored at −20° C. until analysis was performed. A single Alzet mini-pump (#1002, Alzet, USA) containing either sterile saline (100 μl; n=14) or peptide 3 (20 μmol/kg dissolved in 100 μl saline; n=14) was inserted under the skin between the scapula of the mice. The incision was clamped and disinfected using iodine. The pumps were left for 14 days, and 5 body-weight, and food measurements were recorded during this period, at days 0, 4, 7, 10 and 14. Blood samples were collected on day 0 and 14 days post-saline (n=5) or peptide 3 (n=4) administration for plasma glucose analysis. The results reported below are expresses as mean +/− standard error. (a) Plasma insulin Plasma insulin levels were quantitatively determined in ob/ob mice, using an insulin radioimmunoassay kit (Linco Research Inc. USA) according to the manufacturer's instructions.

[6] = 20 μmol/kg by mini-pump, 14 days

Substance: Arg-D-Ala-Phe-Phe-NH2 (R[dA]FF-NH2; N-terminus assumed; SMILES C[C@@H](NC(=O)[C@@H](N)CCCNC(=N)N)C(=O)N[C@@H](Cc1ccccc1)C(=O)N[C@@H](Cc1ccccc1)C(N)=O) [Peptide 3]
- maximum stimulation of the rate of glycogen synthesis ([1]; 10 μmol/ml peptide, 1 mU/ml insulin): up to 1.44±0.04 mol/g tissue/hr
- in vitro glycogen synthesis ([1]; 0.01-1 μmol/ml peptide (p<0.05), FIG. 2A): significantly increased
- Activity ([1]; Table 6 (corrected), summary of Table 5): active
- hypoglycaemic effect (reduction of basal blood glucose level) [2]: significant hypoglycaemic effects
- hypoglycaemic effect (reduction of basal blood glucose level) ([2]; listed as Arg-D-Ala-Phe-Phe amide): Increased potency
- decrease in blood glucose, oral compared to intraperitoneal administration ([3]; at 120 min (P<0.005)): more profound decrease
- time of maximal decrease in blood glucose ([3]; oral gavage 20 μmol/kg (P<0.005)): 120 min
- blood glucose levels compared to control rats ([3]; oral gavage 20 μmol/kg, significant from 60 min (P<0.05)): significantly reduced
- body weight gain vs saline-infused mice (C57BL/6J ob/ob mice [4]; [6]): no significant difference
- food intake vs saline-infused mice (C57BL/6J ob/ob mice [4]; [6]): no significant difference
- plasma glucose levels vs saline-infused control mice (C57BL/6J ob/ob mice [4]; continuous infusion 14 days (P<0.025)): significantly decreased
- reduction in plasma glucose levels (C57BL/6J ob/ob mice [4]; day 0 to day 14, 4 h fasted): 11.60 ± 3.63 mmol/L
- plasma insulin level (C57BL/6J ob/ob mice [5]): 17.10 ± 5.99 ng/mL
